Experimental data as given in US20250034182A1, “PHOSPHOLIPID COMPOUNDS AND METHODS OF MAKING AND USING THE SAME” (priority 2021, published 2025).

Columns and labels:
[1] = system: Human Rhinovirus 1B (HRV1B) in H1-HeLa cells; assay: H1-HeLa HRV-CTG EC50, HRV1B (Example Z); type: cell-based; settings: Rhinovirus A, 96 h, MOI 0.5, 4 days, Celltiter-Glo, read-out: HRV 1B HELA EC50 (nM) (per Ex. Z)
Method in brief: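 H1-HeLa cells (5,000/well) in DMEM with 2% FBS were infected with HRV1B, HRV14 or HRV16 at MOI 0.5, 1.0 and 0.25, respectively, with 10-point 1:3 compound dilutions. After 4 days at 37 °C, viability was read by CellTiter-Glo luminescence. EC50 was the concentration reducing viral replication by 50%, normalized to rupintrivir and DMSO controls.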

[2] = system: Respiratory syncytial virus recombinant with luciferase (RSV-Luc5) in NHBE cells; assay: NHBE RSV-Luc5 384-well assay (EC50 RSVFLUC NHBE-384, Example U); type: cell-based; settings: human respiratory syncytial virus, 72 h, read-out: RSV FLuc NHBE 384 EC50 (v2) (nM) (per Ex. U)
Method in brief: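 Passage-2 NHBE cells (5,000/well) on pre-spotted compounds, 10-point 1:3 series, infected with RSV-Luc5 at MOI 1 and incubated 3 days at 37° C. Replication read by One-Glo luminescence, normalized to remdesivir (0%) and DMSO (100%); EC50 = concentration reducing replication by 50%, by non-linear regression.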

Row | SMILES | EC50 [1] | EC50 [2]
1 | CCCCCCCCCCCCCCCCCCCC[C@@H](COP(=O)(O)OC[C@@]1(C#N)O[C@@H](c2ccc3c(N)ncnn23)[C@H](O)[C@@H]1O)OCc1cc(F)cc(C#N)c1 [Compound 70, ((2R,3S,4R)-5-(4-aminopyrrolo[2,1-f][1,2,4]triazin-7-yl)-2-cyano-3,4-dihydroxytetrahydrofuran-2-yl)methyl ((S)-2-((3-cyano-5-fluorobenzyl)oxy)docosyl) hydrogen phosphate] | 84 nM | 165 nM
2 | CCCCCCCCCCCCCCCCCCC[C@H](COP(=O)(O)OC[C@@]1(C#N)O[C@@H](c2ccc3c(N)ncnn23)[C@H](O)[C@@H]1O)OCc1cc(F)cc(C#N)c1 [Compound 25, ((2R,3S,4R,5S)-5-(4-aminopyrrolo[2,1-f][1,2,4]triazin-7-yl)-2-cyano-3,4-dihydroxytetrahydrofuran-2-yl)methyl ((R)-2-((3-cyano-5-fluorobenzyl)oxy)henicosyl) hydrogen phosphate] | 45 nM | 169 nM
3 | CCCCCCCCCCCCCCOC[C@H](COP(=O)(O)OC[C@@]1(C#N)O[C@@H](c2ccc3c(N)ncnn23)[C@H](O)[C@@H]1O)Oc1cc(C#N)ccn1 [Compound 69, ((2R,3S,4R)-5-(4-aminopyrrolo[2,1-f][1,2,4]triazin-7-yl)-2-cyano-3,4-dihydroxytetrahydrofuran-2-yl)methyl ((R)-2-((4-cyanopyridin-2-yl)oxy)-3-(tetradecyloxy)propyl) hydrogen phosphate] | 116 nM | 32 nM
